Assay results reported in patent US9765378B2, “Preparation method of new recombinant antibacterial polypeptide medicine” (priority 2011, dated 2017).

Tested on: Staphylococcus (Staphylococcus aureus, Staphylococcus epidermidis, Staphylococcus saprophyticus, and Staphylococcus sciuri)
Assay: in vitro inhibition and bactericidal effect on bovine mastitis isolated pathogenic bacteria: Staphylococcus
Type: cell-based
Details: control antibiotics
Protocol: (5) the recombinant antibacterial polypeptide medicine was tested for the in vitro inhibition and bactericidal effect on bovine mastitis isolated pathogenic bacteria.

Structure (SMILES)	inhibition and bactericidal effect of controls (MIC50/MBC50 not specified) [mg/L]
CC(=O)OCC1=C(C(=O)O)N2C(=O)[C@@H](NC(=O)Cc3cccs3)[C@H]2SC1 [cephalothin]	2
Cc1onc(-c2ccccc2)c1C(=O)N[C@@H]1C(=O)N2[C@@H]1SC(C)(C)[C@@H]2C(=O)O [oxacillin]	4
